Legend:
[1] = tested on: N-Myc-Max transcription activity (LNCaP-NMYC cells); test: Myc transcription assay (Cignal Myc reporter, luciferase) in LNCaP-NMYC cells; assay type: cell-based
Summary of the method: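 LNCaP-NMYC cells transfected with Cignal Myc luciferase reporter were treated 24 h with compounds at 5 µM or 10 µM. Read-out: inhibition of N-Myc-Max-driven reporter luminescence.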

[2] = tested on: NCI-H660 cells; test: Cell viability (CellTiter-Glo), NCI-H660; assay type: cell-based
Method: Viability of N-Myc positive (IMR32and NCI-H660) and negative (HO15.19) cells were determined using the CellTiter-Glo Luminescent Cell Viability Assay (Promega cat. G7570) (Madison, WI, USA). Cells were seeded into a 96-well white plate with a clear bottom: 10,000 cells per well for the IMR32 cells cultured in EMEM supplemented with 10% FBS, 2000 HO15.19 cells per well in Eagle’s minimum essential medium (EMEM) supplemented with 10% FBS, and 2000 cells per well for the NCI-H660 neuroendocrine cells cultured in RPMI supplemented 5% FBS, 1% Insulin-Transferrin-Selenium (Thermo Fisher, 41400-045), 10nM b-estradiol (Sigma, E8875), 10nM hydrocortisone (Sigma H0888) and 1% matrigel. Following 24 h incubation, the cells were treated with serial dilutions of the derivatives along with the respective parental compound starting at 25 μM for 72 h. Cell Titer Glo was added to each well at a ratio of 1:1 and incubated on a shaker at RT for 2 min. Luminescence and IC50 was measured with the TECAN InfiniteM200 plate reader (Männedorf, Switzerland).

[3] = tested on: N-Myc-Max binding to DNA E-box; test: Biolayer interferometry (BLI), N-Myc-Max binding to biotinylated E-box DNA; assay type: biochemical; details: BLI, 0, 50, 100, 200 µM
Source text: (§1) To confirm that 70619 could disrupt the binding of N-Myc-Max DBD to DNA, we performed a bio-layer interferometry (BLI) assay where we immobilized biotinylated E-box sequence on streptavidin sensors, and we evaluated recombinant N-Myc-Max binding to the DNA in the presence of increasing concentrations of VPC-70619. […] We observed a similar number of interactions when comparing the ratio of signal per nuclei in the presence or absence of the compound.
The bHLHLZ domain of N-Myc (amino acids 309–394) and Max (amino acids 12–93) protein sequences were cloned into pETDuet with an N-terminal 6×His. pETDuet-His-NMyc-Max was transformed and expressed in E. coli BL21 and induced with 0.5 mM isopropyl-β-D-thiogalactopyranoside (IPTG) at 16 °C overnight. The cultures were lysed by sonication and combined for purification by immobilized metal ion chromatography (IMAC) with nickel-nitrilotriacetic acid (Ni-NTA) resin. The bound proteins were eluted from the column with 20 mM Tris, pH = 8, 500 mM NaCl, 5% glycerol, 300 mM imidazole, 5 mM βMe, and 0.1 mM PMSF. Size exclusion chromatography with Superdex 75 was used to increase the purity of the N-Myc-Max protein sample. The purified protein complex was used in subsequent BLI and MST experiments.
Biotinylated-duplex DNA (Forward: 5′ Biotin-[…], Reverse: […]) was bound to the super-streptavidin (SSA) ForteBio Sensor in the assay buffer [20 mM Tris pH = 8, 150 mM NaCl, 5% glycerol, and 0.2 mM TCEP]. The protein solution was mixed with the serially diluted compound (70619) to a final concentration of 0.1 mg/mL of protein and 200 μM, 100 μM, and 50 μM for the compound. Sample containing N-Myc-Max protein alone was used as a control.

[4] = target: T1, N-Myc-Max heterodimer (Homo sapiens, UniProt P04198+P61244); test: Proximity ligation assay (PLA) in LNCaP-NMYC cells; assay type: cell-based; details: 10 µM, 72 h
T1 construct: expressed in transfected cells; host or cells: LNCaP-NMYC cells (gift from David Rickman)
Method: as §1
LNCaP-NMYC cells were seeded on coverslips at a density of 10^5 cells per well of a 6-well plate. After incubation for 24 h the cells were treated with 10 μM of either 10074-G5 or 70619 for 72 h. The coverslips were fixed with methanol:acetone (3:1) and incubated with primary antibodies n-Myc Antibody (NMYC-1) (Novus Biologicals NB200-109) (Littleton, CO, USA) and MAX Antibody (C-17) (Santa Cruz sc-197) (Dallas, TX, USA) overnight at 4 °C. PLA was conducted using the Duolink In Situ Detection Reagents Red kit (Sigma DUO92008) according to the manufacturer’s protocol. The coverslips were then mounted on slides with VECTASHIELD mounting media with DAPI, and images were taken on ZEISS 780 confocal microscope at 40× magnification.

[5] = Microsomal stability assay; assay type: in vitro ADME, Mouse
Method: A microsomal stability assay was performed using the Corning Gentest NADPH Regenerating System (Corning, #451220/41200) (Corning, NY, USA). Mouse liver microsomes (MLM) (Xenotech, M1000) (Kansas City, KS, USA) and compounds were diluted to a final concentration of 0.15 mg/mL and 1 μM respectively. These were prepared into a 500 μL solution with 100 mM potassium phosphate buffer (pH = 7.4). Imipramine was used as a control. NADPH solutions A and B were mixed in a 5:1 ratio, and 24 μL of the NADPH was added to each of the MLM/compound samples at 30 s intervals. At time points 10, 20, and 45 min, 100 μL of reaction was added to the stopping solution. Samples were centrifuged at 18,000× g and incubated at 4 °C for 10 min. Samples were then loaded onto a LC-MS 96-well plate for analysis.

T1 sequence (P04198 whole entry): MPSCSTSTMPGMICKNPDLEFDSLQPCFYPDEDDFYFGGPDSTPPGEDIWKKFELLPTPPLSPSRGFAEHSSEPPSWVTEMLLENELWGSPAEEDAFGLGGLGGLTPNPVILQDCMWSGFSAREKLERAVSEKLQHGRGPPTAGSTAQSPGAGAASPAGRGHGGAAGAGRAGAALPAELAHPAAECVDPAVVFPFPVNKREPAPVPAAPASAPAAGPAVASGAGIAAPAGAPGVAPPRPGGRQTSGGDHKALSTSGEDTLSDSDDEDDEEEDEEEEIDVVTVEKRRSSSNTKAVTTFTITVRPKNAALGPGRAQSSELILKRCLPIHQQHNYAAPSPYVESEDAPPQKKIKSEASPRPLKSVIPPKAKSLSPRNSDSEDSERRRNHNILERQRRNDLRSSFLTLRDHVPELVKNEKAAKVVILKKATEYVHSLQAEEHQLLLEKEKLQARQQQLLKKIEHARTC
T1 sequence (P61244 whole entry): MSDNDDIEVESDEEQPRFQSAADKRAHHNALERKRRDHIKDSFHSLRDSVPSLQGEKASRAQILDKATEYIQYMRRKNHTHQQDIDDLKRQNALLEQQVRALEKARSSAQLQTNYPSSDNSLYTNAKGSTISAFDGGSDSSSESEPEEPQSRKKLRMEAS

In the case of `N#Cc1ccc(NNC(=O)c2ccc(C#N)c(Cl)c2)c(C(F)(F)F)c1` [compound 70619], the IC50 ([1]; 24 h, treatment for 1 day, 0–25 µM, read-out: IC50 in the luciferase transcription inhibition assay) is reported as 4.3 µM, the “transcription inhibition activity at 5 µM (in words)” value ([1]; LNCaP-NMYC, 5 µM) is reported as “restoring the inhibitory activity” and the IC50 ([2]; NCI-H660, 72 h, read-out: IC50 cell proliferation in NCI-H660) is reported as 7 µM. For the same compound, the “inhibition of NCI-H660 (in words)” value ([2]; NEPC in vitro model) was “good inhibition”, the “disruption of DNA binding to (N-)Myc-Max (in words)” value [3] was “disrupt DNA binding at 100 µM” and the “disruption of DNA binding to (N-)Myc-Max (in words)” value ([3]; listed as VPC-70619) was “effective at blocking N-Myc-Max binding to DNA in a dose-dependent manner”. The “effect on N-Myc-Max heterodimer interactions (in words)” value [4] was “does not disrupt Myc-Max complexes”, the “effect on N-Myc-Max heterodimer interactions (in words)” value ([4]; listed as VPC-70619) was “does not disrupt the N-Myc-Max heterodimer formation” and the “increase in microsomal stability compared to VPC-70551” value ([5]; half-life 2310 min vs 140 min) was 15 fold. For the same compound, the half-life at 1 μM ([5]; mouse, mouse liver microsomes, pH 7.4, mouse liver microsomes, 1 µM compound, read-out: microsomal half-life (T1/2)) was 38.5 h.

From article PMC8910697, “Development of VPC-70619, a Small-Molecule N-Myc Inhibitor as a Potential Therapy for Neuroendocrine Prostate Cancer” (International Journal of Molecular Sciences, 2022)
